# Results: US20100204231A1, “AMINO-THIAZOLYL-PYRIMIDINE DERIVATIVES AND THEIR USE FOR THE TREATMENT OF CANCER” (ASTRAZENECA AB, priority 2007, published 2010)
# Target: T1, C-terminal His6-tagged, recombinant, human JAK2, amino acids 808-end (Homo sapiens, UniProt O60674)
# T1 construct: human JAK2, amino acids 808-end; His6 (C); purchased Upstate Biotechnology; host or cells: baculovirus in Sf21 cells
# Test: JAK2 kinase activity assay (Alphascreen)
# Format: biochemical
# Conditions: 150 pM JAK2 enzyme, 30 μM ATP, 80 nM Tyk2 peptide substrate, 60 minutes, room temperature; read-out: JAK inhibitory activity IC50
# Description: JAK2 kinase activity was determined by measuring the kinase's ability to phosphorylate synthetic tyrosine residues within a generic polypeptide substrate using an Amplified Luminescent Proximity Assay (Alphascreen) technology (PerkinElmer, 549 Albany Street, Boston, Mass.).
# To measure JAK2 kinase activity, a commercially available purified enzyme may be used. The enzyme may be C-terminal His6-tagged, recombinant, human JAK2, amino acids 808-end, (Genbank Accession number NM 004972) expressed by baculovirus in Sf21 cells (Upstate Biotechnology MA). After incubation of the kinase with a biotinylated substrate and adenosine triphosphate (ATP) for 60 minutes at room temperature, the kinase reaction may be stopped by the addition of 30 mM ethylenediaminetetraacetic acid (EDTA). The reaction may be performed in 384 well microtitre plates and the reaction products may be detected with the addition of streptavidin coated Donor Beads and phosphotyrosine-specific antibodies coated Acceptor Beads using the EnVision Multilabel Plate Reader after an overnight incubation at room temperature.
# T1 sequence (O60674 808-1132 limits assumed): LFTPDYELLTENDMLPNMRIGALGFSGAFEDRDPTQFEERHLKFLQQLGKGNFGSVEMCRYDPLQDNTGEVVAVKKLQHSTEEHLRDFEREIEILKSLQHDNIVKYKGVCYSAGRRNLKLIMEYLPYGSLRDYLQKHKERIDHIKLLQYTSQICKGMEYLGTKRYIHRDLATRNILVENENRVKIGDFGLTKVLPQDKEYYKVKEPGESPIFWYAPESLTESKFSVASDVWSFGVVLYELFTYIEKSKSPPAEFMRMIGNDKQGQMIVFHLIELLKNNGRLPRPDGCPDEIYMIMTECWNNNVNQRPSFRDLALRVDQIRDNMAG
row,Compound,IC50
1,"C[C@H](Nc1nc(Nc2ncc(C#N)s2)cc(N2CCOCC2)n1)c1ccc(F)cn1 [Example 8, 2-[(2-{[(1S)-1-(5-Fluoropyridin-2-yl)ethyl]amino}-6-morpholin-4-ylpyrimidin-4-yl)amino]-1,3-thiazole-5-carbonitrile]",3 nM
2,"Cc1cnc(Nc2nc(N[C@@H](C)c3ccc(F)cn3)ncc2Cl)s1 [Example 3, 5-Chloro-N^2-[(1S)-1-(5-fluoropyridin-2-yl)ethyl]-N^4-(5-methyl-1,3-thiazol-2-yl)pyrimidine-2,4-diamine]",902 nM
3,"Cc1cnc(Nc2nc(N[C@@H](C)c3ncc(F)cn3)nc(N3CCOCC3)c2F)s1 [Example 4, 5-Fluoro-N^2-[(1S)-1-(5-fluoropyrimidin-2-yl)ethyl]-N^4-(5-methyl-1,3-thiazol-2-yl)-6-morpholin-4-ylpyrimidine-2,4-diamine]",3 nM
4,"COC(=O)c1cnc(Nc2nc(N[C@@H](C)c3ccc(F)cc3)ncc2Cl)s1 [Example 2, Methyl 2-[(5-chloro-2-{[(1S)-1-(4-fluorophenyl)ethyl]amino}pyrimidin-4-yl)amino]-1,3-thiazole-5-carboxylate]",170 nM
5,"Cc1cnc(Nc2cc(N3CCN(C)CC3)nc(N[C@@H](C)c3ccc(F)cn3)n2)s1 [Example 5, N^2-[(S)-1-(5-Fluoro-pyridin-2-yl)-ethyl]-6-(4-methyl-piperazin-1-yl)-N^4-(5-methyl-thiazol-2-yl)-pyrimidine-2,4-diamine]",3 nM
6,"Cc1cnc(Nc2nc(N[C@@H](C)c3ccc(F)cc3)ncc2Cl)s1 [Example 1, 5-Chloro-N^2-[(1S)-1-(4-fluorophenyl]ethyl)-N^4-(5-methyl-1,3-thiazol-2-yl)pyrimidine-2,4-diamine]",6 nM
7,"COc1cc(Nc2ncc(C)s2)nc(N[C@@H](C)c2ncc(F)cn2)n1 [Example 10, (S)—N^2-(1-(5-Fluoropyrimidin-2-yl)ethyl)-6-methoxy-N^4-(5-methylthiazol-2-yl)pyrimidine-2,4-diamine]",3 nM
